Experimental data as given in PMC8219408, “Switching Cytolytic Nanopores into Antimicrobial Fractal Ruptures by a Single Side Chain Mutation” (ACS nano, 2021).
Values after ≈ are worked out from the molar mass of the structure shown. Like-named read-outs stand apart in the source and are kept apart here. Bridge positions count the residues as written; N and C are the ends. Square brackets hold non-standard residues; d marks the D form. Peptide text beside a SMILES is read from it. * marks the point of attachment. X1 = CC[C@H](C)CCCCC(=O)*; Dab = NCC[C@H](N)C(=O)O

Columns and labels:
B. subtilis (ATCC 6633) = assay type: cell-based
Protocol: (§1) MIC values were obtained using broth microdilution against different bacteria following the protocols by Clinical and Laboratory Standards Institute. Specifically, each bacterium (100 μL of 0.5–1 × 10^6 CFU per ml) in Mueller Hinton media broth (Oxoid) was incubated in 96-well microtiter plates at 37 °C on a 3D orbital shaker. 100 μL of serial twofold peptide dilutions (from 100 to 0 μM) were used. Following peptide addition, absorbance (600 nm) was measured in a SpectraMax i3x multi-mode microplate reader (Molecular Devices). The lowest peptide concentrations inhibiting visible bacterial growth after 24 h at 37 °C was defined as MICs. All tests were performed in triplicate.

E. coli (ATCC 15597) = assay type: cell-based
Protocol: as §1

[1] = tested on: K. pneumoniae (NCTC 5055); assay type: cell-based
Protocol: as §1

M. luteus (ATCC 49732) = assay type: cell-based
Protocol: as §1

[2] = tested on: P. aeruginosa (ATCC 27853); assay type: cell-based
Protocol: as §1

S. aureus (ATCC 6538) = assay type: cell-based
Protocol: as §1

S. typhimurium (6192) = assay type: cell-based
Protocol: as §1

Human erythrocytes = assay: Hemolysis assay; assay type: cell-based
Protocol: For hemolysis measurements 10% (vol/vol) suspensions of human erythrocytes with peptides were used. Phosphate buffer saline (PBS, 10 mM, pH 7.2) was used to rinse human red blood cells (4x) using repeated centrifugation and re-suspension (3 min, 3000 × g). The cells were incubated for 1 h at room temperature in deionized water (fully hemolysed control), with peptide in PBS or just PBS, which was followed by centrifugation (5 min, 10000 × g). The obtained supernatant was then separated from the pellet, and absorbance (550 nm) was measured in a SpectraMax i3x multi-mode microplate reader (Molecular Devices). Absorbance obtained for the suspension that was treated with deionized water gave complete (100%) hemolysis. Table S1 summarises the results, with the values corresponding to % hemolysis for peptide at 250 μM. All tests were performed in triplicate.

[3] = molecular target: DLPC/DLPG (3:1 molar ratio) unilamellar vesicles; assay: Isothermal titration calorimetry, anionic vesicles; conditions: ITC, peptide (500 μM) titrated into DLPC/DLPG (3:1) vesicles (380 μM total lipid), 25 °C, one-set binding model, duplicate; read-out: dissociation constant (KD)
Protocol: The lipids used for the assembly of unilamellar vesicles were from Avanti Polar Lipids: 1,2-dilauroylphosphatidylcholine (DLPC) was used for zwitterionic vesicles, while its mixture with 1,2-dilauroyl-sn-glycero-3-phospho-(1’-rac-glycerol) (DLPG) at a 3:1 molar ratio was used for anionic vesicles. After weighting up the lipid aliquots were dissolved in chloroform and dried under a nitrogen stream until a thin film was formed. The obtained film was subjected to hydration in 10 mM phosphate buffer (pH 7.4), which was followed by vortexing (1x, 2 min) and sonication (1x, 30 min). A hand-held extruder (Avanti Polar lipids) was used to extrude the resulting suspension (29x, polycarbonate filter, 0.05 μm) until a clear solution containing small unilamellar vesicles (SUV) was obtained. The SUVs were then analysed (50 nm) using a Zetasizer Nano (ZEN3600, Malvern Instruments, UK) and re-suspended to a final concentration of 1 mg/mL. The measurements were performed using a low volume disposable cuvette at 25°C. […]
A Microcal isothermal titration calorimeter-200 (ITC-200) was used to carry out all ITC experiments. […] Binding isotherms were recorded for peptides (500 μM) titrated into unilamellar phospholipid vesicles (380 μM, total lipid) in the cell. […]

[4] = K. pneumoniae (NCTC 5055), broth microdilution (CLSI), Mueller Hinton broth, 24 h at 37 °C, triplicate

Row | SMILES | Minimum inhibitory concentration (B. subtilis (ATCC 6633); ATCC 6633, 24 h) [µM] | Minimum inhibitory concentration (E. coli (ATCC 15597); ATCC 15597, 24 h) [µM] | Minimum inhibitory concentration ([1]; NCTC 5055, 24 h) [µM] | Minimum inhibitory concentration (M. luteus (ATCC 49732); ATCC 49732, 24 h) [µM] | Minimum inhibitory concentration ([2]; ATCC 27853, 24 h) [µM] | Minimum inhibitory concentration (S. aureus (ATCC 6538); ATCC 6538, 24 h) [µM] | Minimum inhibitory concentration (S. typhimurium (6192); 6192, 24 h) [µM] | % hemolysis, at 250 μM (Human erythrocytes; 250 µM, pH 7.2) [%] | Kd [3] [nM] | hemolytic activity (in words) (Human erythrocytes) | Minimum inhibitory concentration [1, 4] [µM] | Minimum inhibitory concentration (B. subtilis (ATCC 6633); B. subtilis (ATCC 6633), broth microdilution (CLSI), Mueller Hinton broth, 24 h at 37 °C, triplicate) [µM] | Minimum inhibitory concentration (E. coli (ATCC 15597); E. coli (ATCC 15597), broth microdilution (CLSI), Mueller Hinton broth, 0.5–1 × 10^6 CFU per ml, 24 h at 37 °C, absorbance 600 nm, triplicate) [µM] | Minimum inhibitory concentration (M. luteus (ATCC 49732); M. luteus (ATCC 49732), broth microdilution (CLSI), Mueller Hinton broth, 24 h at 37 °C, triplicate) [µM] | Minimum inhibitory concentration ([2]; P. aeruginosa (ATCC 27853), broth microdilution (CLSI), Mueller Hinton broth, 24 h at 37 °C, triplicate) [µM] | Minimum inhibitory concentration (S. aureus (ATCC 6538); S. aureus (ATCC 6538), broth microdilution (CLSI), Mueller Hinton broth, 24 h at 37 °C, triplicate) [µM] | Minimum inhibitory concentration (S. typhimurium (6192); S. typhimurium (6192), broth microdilution (CLSI), Mueller Hinton broth, 24 h at 37 °C, triplicate) [µM] | % hemolysis, at 250 μM (Human erythrocytes; peptide at 250 μM, 10% (vol/vol) human erythrocytes in PBS pH 7.2, 1 h at room temperature, absorbance 550 nm, deionized water = 100%, triplicate) [%]
1 | CC(C)C[C@H](NC(=O)[C@H](CC(C)C)NC(=O)[C@H](CCCNC(=N)N)NC(=O)[C@H](CC(C)C)NC(=O)[C@H](C)NC(=O)[C@H](CC(C)C)NC(=O)[C@H](CCCNC(=N)N)NC(=O)[C@H](CC(C)C)NC(=O)[C@H](CC(C)C)NC(=O)[C@@H](N)CCCNC(=N)N)C(N)=O [bienA10] (H-RLLRLALRLL-NH2; N-terminus assumed) | 1.5 (≈ 1.85 µg/mL) | 3 (≈ 3.71 µg/mL) | 3 (≈ 3.71 µg/mL) | 1.5 (≈ 1.85 µg/mL) | 25 (≈ 30.9 µg/mL) | 3 (≈ 3.71 µg/mL) | 6 (≈ 7.41 µg/mL) | 25 |  |  |  |  |  |  |  |  |  | 
2 | CC(C)C[C@H](NC(=O)[C@H](CC(C)C)NC(=O)[C@H](CCCNC(=N)N)NC(=O)[C@H](CC(C)C)NC(=O)[C@H](CCCCN)NC(=O)[C@H](CC(C)C)NC(=O)[C@H](CCCNC(=N)N)NC(=O)[C@H](CC(C)C)NC(=O)[C@H](CC(C)C)NC(=O)[C@@H](N)CCCNC(=N)N)C(N)=O [bienK10] (H-RLLRLKLRLL-NH2; N-terminus assumed) | 6 (≈ 7.76 µg/mL) | 3 (≈ 3.88 µg/mL) | > 50 | 1.5 (≈ 1.94 µg/mL) | 25 (≈ 32.3 µg/mL) | 25 (≈ 32.3 µg/mL) | 50 (≈ 64.6 µg/mL) | 0 |  |  |  |  |  |  |  |  |  | 
3 | CC(C)C[C@H](NC(=O)[C@H](CCCNC(=N)N)NC(=O)[C@H](CC(C)C)NC(=O)[C@H](C)NC(=O)[C@H](CC(C)C)NC(=O)[C@H](CCCNC(=N)N)NC(=O)[C@H](CC(C)C)NC(=O)[C@H](CC(C)C)NC(=O)[C@@H](N)CCCNC(=N)N)C(N)=O [bienA9] (H-RLLRLALRL-NH2; N-terminus assumed) | 6 (≈ 6.73 µg/mL) | 6 (≈ 6.73 µg/mL) | 50 (≈ 56.1 µg/mL) | 1.5 (≈ 1.68 µg/mL) | 50 (≈ 56.1 µg/mL) | 25 (≈ 28.1 µg/mL) | 50 (≈ 56.1 µg/mL) | 25 | 170 |  |  |  |  |  |  |  |  | 
4 | CC(C)C[C@H](NC(=O)[C@H](C)NC(=O)[C@H](CC(C)C)NC(=O)[C@H](CCCNC(=N)N)NC(=O)[C@H](CC(C)C)NC(=O)[C@H](CC(C)C)NC(=O)[C@@H](N)CCCNC(=N)N)C(=O)N[C@@H](CCCNC(=N)N)C(=O)N[C@@H](CC(C)C)C(=O)N[C@@H](CC(C)C)C(=O)N[C@@H](CCCNC(=N)N)C(N)=O [bienA11] (H-RLLRLALRLLR-NH2; N-terminus assumed) | 6 (≈ 8.35 µg/mL) | 3 (≈ 4.18 µg/mL) | 6 (≈ 8.35 µg/mL) | 1.5 (≈ 2.09 µg/mL) | 3 (≈ 4.18 µg/mL) | 3 (≈ 4.18 µg/mL) | 12 (≈ 16.7 µg/mL) | 25 |  | hemolytic |  |  |  |  |  |  |  | 
5 | CC(C)C[C@H](NC(=O)[C@H](CC(C)C)NC(=O)[C@H](CCCNC(=N)N)NC(=O)[C@H](CC(C)C)NC(=O)[C@H](CCCCN)NC(=O)[C@H](CC(C)C)NC(=O)[C@H](CCCNC(=N)N)NC(=O)[C@H](CC(C)C)NC(=O)[C@H](CC(C)C)NC(=O)[C@@H](N)CCCNC(=N)N)C(=O)N[C@@H](CCCNC(=N)N)C(N)=O [bienK11] (H-RLLRLKLRLLR-NH2) | 3 (≈ 4.35 µg/mL) | 3 (≈ 4.35 µg/mL) | > 50 | 1.5 (≈ 2.17 µg/mL) | 12 (≈ 17.4 µg/mL) | 12 (≈ 17.4 µg/mL) | 50 (≈ 72.4 µg/mL) | 0 |  | non-hemolytic |  |  |  |  |  |  |  | 
6 | CC[C@H](C)[C@H](NC(=O)CN)C(=O)NCC(=O)N[C@@H](C)C(=O)N[C@H](C(=O)N[C@@H](CC(C)C)C(=O)N[C@@H](CCCCN)C(=O)N[C@H](C(=O)N[C@@H](CC(C)C)C(=O)N[C@H](C(=O)N[C@H](C(=O)NCC(=O)N[C@@H](CC(C)C)C(=O)N1CCC[C@H]1C(=O)N[C@@H](C)C(=O)N[C@@H](CC(C)C)C(=O)N[C@H](C(=O)N[C@@H](CO)C(=O)N[C@@H](Cc1c[nH]c2ccccc12)C(=O)N[C@H](C(=O)N[C@@H](CCCCN)C(=O)N[C@@H](CCCNC(=N)N)C(=O)N[C@@H](CCCCN)C(=O)N[C@@H](CCCNC(=N)N)C(=O)N[C@@H](CCC(N)=O)C(=O)N[C@@H](CCC(N)=O)C(N)=O)[C@@H](C)CC)[C@@H](C)CC)[C@@H](C)O)[C@@H](C)O)C(C)C)C(C)C [melittin, reference compound] |  |  |  |  |  |  |  |  |  |  | 3 (≈ 8.54 µg/mL) |  |  |  |  |  |  | 
7 | CC[C@H](C)CCCCC(=O)N[C@@H](CCN)C(=O)N[C@H](C(=O)N[C@@H](CCN)C(=O)N[C@H]1CCNC(=O)[C@H]([C@@H](C)O)NC(=O)[C@H](CCN)NC(=O)[C@H](CCN)NC(=O)[C@H](CC(C)C)NC(=O)[C@@H](Cc2ccccc2)NC(=O)[C@H](CCN)NC1=O)[C@@H](C)O [polymyxin B, reference compound] (X1-[Dab]T[Dab][Dab][Dab][dF]L[Dab][Dab]T; lactam 4-C (inferred); N-terminus assumed) |  |  |  |  |  |  |  |  |  |  | 3 (≈ 3.61 µg/mL) | 3 (≈ 3.61 µg/mL) | 1.5 (≈ 1.81 µg/mL) | 1.5 (≈ 1.81 µg/mL) | 1.5 (≈ 1.81 µg/mL) | 25 (≈ 30.1 µg/mL) | 1.5 (≈ 1.81 µg/mL) | 5
